The values that follow come from patent publication US20090298938A1, “USE OF SEMI SYNTHETIC ANALOGUES OF BOSWELLIC ACIDS FOR ANTICANCER ACTIVITY” (COUNCIL OF SCIENTIFIC & INDUSTRIAL RESEARCH, priority 2008, published 2009).

Entries after “also recorded” stand apart in the source; their conditions may differ.

Holding throughout (format): cell-based, human
The test system of assay [1] is HL-60 cells. In words: Apoptosis induction, annexin V-FITC/PI flow cytometry. The note with it: HL-60, 15 μM, 6 hr. The protocol: FIG. 2. Comparative efficacy of apoptosis induction: Measurement by flow cytometry. The effects of boswellic acid on the relative efficiency of induction of apoptosis and necrosis in HL-60 cells were analyzed by flow cytometry. Cells were incubated with each analog for 6 hrs and stained with annexin V-FITC labeled. The dot plots are representative of one of the two separate experiments. Values in the lower right quadrant represent the apoptotic population in the UR as post-apoptotic and in the UL as necrotic. Where a=compound of formula 1, R3=COCH2CH2CH3, […], R4=[…], b=compound of formula 1, R3=COCH2CH3R1=H, R4=[…], c=compound of formula 1, R3=COCH2CH2CH3, […], R4+R5=O, d=compound of formula 1, […], R3=COCH2CH3, R4=[…], e=compound of formula 1, R3=COCH2CH2CH3, […], R4=[…], f=β-boswellic acid. Compounds of formula 1 where […], R3=COCH2CH3R3=[…]; R3=COCH2CH2CH3, […], R4=[…] and natural β-boswellic acid produced low level of apoptotic cell population (approx. 10%) compared to compound of formula 1 where R3=COCH2CH2CH3, […], R4=[…] (17%), […], R3=COCH2CH3, R4=[…] (30%) and where R3=COCH2CH2CH3, […], R4+R5=O (23%), although the combined apoptotic and post-apoptotic population was about 32% with the last three analogs. Confirmation that boswellic acid analogs are potent inducers of apoptosis may also be obtained from DNA fragmentation assay. During the early events of apoptosis, phospholipid phosphatidyl serine of plasma membrane is externalized, which has very high affinity for annexinV antibody. Effect of a single concentration (15 μM) of each boswellic acid analogs on the relative efficiency of induction of apoptosis and necrosis in HL-60 cells was analyzed by flow cytometry. Cells were incubated with each analog for 6 hr and stained with Annexin V-FITC/PI. Camptothecin at 4 μM was used as positive control. There after, cells were washed and stained with FITC conjugated annexinV antibody and propidium iodide. The cells (10,000) were analysed by flow cytometery (BD, LSR) using ProQuest software.

In assay [2] the test system is HL-60 cells. In words: Inhibition of cell proliferation, MTT assay. The conditions noted are these: HL-60, 48 hours. The protocol: FIGS. 1A-1B. FIG. 1A depicts the main triterpenoic acid constituents of the gum exudates from Boswellia serrata, the source of boswellic acids, represented by boswellic acid, acetyl boswellic acid, 11-keto-boswellic acids, acetyl-11-keto-boswellic acid. […] Cell proliferation analysis was performed in HL-60 cells using the MTT method described in the Examples section. Cells were incubated with each formula 1 analog for 48 hours at indicated concentration and thereafter, the mitochondiral competence of MTT reduction as an index of cell viability was determined. The optical density (OD) of the untreated control was taken as 100% viability. […] This analog, as a prototype, was selected for detailed investigations. Where a=compound of formula 1, R3=COCH2CH2CH3, R1=H, R4=R5=H, b=compound of formula 1, R3=COCH2CH3, R1=H, X=H2, c=compound of formula 1, R3=COCH2CH2CH3, R1=H, R4+R5=O, d=compound of formula 1, R1=H, R3=COCH2CH3, R4=R5=H, e=compound of formula 1, R3=COCH2CH2CH3, R1=H, R4=R5=H, f=β-boswellic acid
Human leukemia cells HL-60 were grown in suspension in 96-well culture plate and were incubated with different concentrations of the test analogs for 48 hr. The cells were then incubated with MTT and the MTT-formazon formed is eluted with DMSO, and OD measured in ELISA Reader [Shashi et al., 2006]. The intensity of the color formed in the untreated control wells relates to 100% cell growth. […]

Assay [3] has as its system HL-60 cells. In words: Endogenous nitric oxide, DAF-2-DA flow cytometry. The conditions noted are these: HL-60, 4 hr. The protocol:
FIG. 5. Copious early endogenous formation of nitric oxide by compound of formula 1 where R3=COCH2CH2CH3, R1=H, R4+R5=O in HL-60 cells. Nitric Oxide (NO) production was measured by flow cytometry in the FL1 channel using DAF-2-DA (an NO probe) after exposing HL-60 cells for 4 hours to indicated concentrations of SS-145. To investigate the contribution of iNOS to NO production, cells were pre-incubated with iNOS inhibitor sMIT (0.5 mM) for 1 hour prior to treatment with a compound designated “c” (a compound of formula 1 wherein R3=COCH2CH2CH3, R1=H, R4+R5=O). NO and peroxide generation are the early events leading to oxidative stress in the cells. […] It is possible that NO stimulated mitochondrial superoxide generation which together with NO may form peroxynitrite, a dangerous species in producing oxidative damage to the cells and responsible for production of apoptosis
Measurement of in situ NO generation involved the use of a fluorescent probe diaminofluoresceine-2-diacetate, which is permeated easily into the cells. Once inside the cell it binds NO soon it is formed and emits fluorescence [H. Kojima et al, 1998]. For this purpose, the HL-60 cells were incubated with DAF-2-DA for 30 min before being incubated with the indicated concentration of SS-145 for 4 hr. Cells were analyzed on flow cytometer in FL-1 channel for NO. […]

A further assay concerns caspase-3 in HL-60 cells. In words: Caspase-3 activation, colorimetric, HL-60. The procedure:
FIGS. 8A-8B. Caspase activation in HL-60 cells by boswellic acid analogs. FIG. 8A depicts the results of a colorimetric evaluation of caspase-3 activation in HL-60 cells and Molt-4 cells. Cells were treated with a compound designated “c” (formula 1 compound wherein R3=COCH2CH2CH3, […] and R4+R5=O) at concentrations indicated for 6 hours. Caspase-3 inhibitor (DEVD-fmk) was added 30 min prior to the addition of caspase-3 substrate (DEVD-pNA) to the lysate. Data are mean of triplicate determinations with coefficients of variation less than 10%. […] Caspase-9 inhibitor LEHD-CHO was added 30 min prior to the addition of caspase-9 substrate to validate the specificity of caspase-9. Caspase-9 activity was measured fluorometrically. Data are a mean of triplicate determinations with a coefficient of variation of less than 10%. Caspases are important cysteine-proteases that are involved in the cleavage of DNA specifically producing 180 bp DNA fragments. The enzymes act through different signaling pathways. […] Caspase-9 activity was determined fluorometrically and caspase-3 colorimetrically using kits and the instruction provided by the manufacturer (BD pharmingen, USA). Caspase-3 activity was determined in both Molt-4 and HL-60 leukemia cells while caspase-9 was determined in HL-60 cells.

For the molecule `CCCC(=O)OC1CCC2(C)C(CCC3(C)C2C(=O)C=C2C4C(C)C(C)CCC4(C)CCC23C)C1(C)C(=O)O` (stereo not drawn) [R3=COCH2CH2CH3, R1=H, R4+R5=O], in the assay on HL-60 cells [1], the apoptotic cell population stood at 23%; the “combined apoptotic and post-apoptotic population” value is reported as “about 32%”. In the assay with HL-60 cells [2], the “effect on cell proliferation compared to other analogs” value is listed as “marginally stronger effect compared to other analogs”. Besides, the nitric oxide generation result in the assay on HL-60 cells [3] was “early generation of NO; also recorded: all the cells formed NO within 6 hr irrespective of the concentration”. In addition, the caspase-3 stimulation result in the assay on caspase-3 in HL-60 cells (50 μM) is “about 50%”. For the same molecule, the caspase-3 activation entry in the assay on caspase-3 in HL-60 cells (HL-60 cells, 6 hr) is listed as “about 50%”.
